Assay results reported in patent publication US10975059B2, “Small molecule BRD4 modulators for HIV epigenetic regulation” (The Board of Regents of The University of Texas System, priority 2017, dated 2021).

Tests used:
[1] = system: HIV in unactivated human CD4 T cells; test: HIV in un-activated (resting) CD4 T cells (intracellular p24); type: cell-based; settings: 2 μM and 4 μM, Day 6
Protocol: We also evaluated the impact of ZL0580 on HIV in un-activated (resting) CD4 T cells. Normal PBMCs were not stimulated but directly infected with HIV by spinoculation. 24 hours after HIV infection, cells were extensively washed and treated with ZL0580 (2 μM and 4 μM) or not (NC). As expected, compared to activated cells, HIV replication kinetics in un-activated CD4 T cells is slower.

HIV in human PBMCs = test: qPCR of HIV DNA and Gag RNA in in vitro infected PBMCs; type: cell-based; settings: PHA-activated PBMCs, 4 μM
[2] = system: PMA-induced HIV activation in J-Lat cells (10.6); test: HIV-suppression model, PMA-stimulated J-Lat cells (GFP, flow cytometry); type: cell-based; settings: 24 hours; for effect on PMA-induced HIV activation (GFP+%): PMA + compound 10 μM
[3] = system: HIV transcription in J-Lat cells; test: qPCR of HIV RNAs (Gag, 3'-LTR) in J-Lat cells; type: cell-based; settings: for HIV mRNAs (Gag and 3'-LTR RNA levels): PMA-activated J-Lat, 24 hours after treatment
[4] = target: T1, non-BET bromodomain protein CBP (Homo sapiens, UniProt Q92793); test: TR-FRET binding assay, CBP
T1 construct: purchased Cayman Chemical
T1 sequence (Q92793 1085-1192 limits assumed): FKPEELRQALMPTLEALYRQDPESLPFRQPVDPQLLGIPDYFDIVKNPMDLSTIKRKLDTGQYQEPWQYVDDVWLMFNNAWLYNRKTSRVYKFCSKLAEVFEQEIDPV
Protocol: A series of concentrations of the compound from 0.01 nM to 100 μM were added into a 384 well test plate and mixed with other reaction components based on the instructions from vendor followed by incubation 1 h at room temperature. […] The plates were read in time-resolved format by exciting the sample at 340 nm and reading emissions at 620 and 670 nm, using a 100 μs delay and a 500 μs window at a Tecan M1000 pro reader.

[5] = system: HIV transcription in PBMC of HIV-infected subjects; test: Ex vivo HIV Gag RNA in PBMCs of viremic HIV-infected subjects (RV21); type: cell-based; settings: 2 days
RV254 PBMCs = test: Viability of RV254 PBMCs; type: cell-based, human; settings: vs ART alone or NC
CDK9 binding to Tat = test: Tat Co-IP, CDK9 binding, J-Lat cells; type: cell-based; settings: vs PMA alone, 24 hours
Protocol: Treated J-Lat cells were harvested, washed and lysed in 1 ml NP-40 cell lysis buffer as described above in western blotting. The lysate was cleared by centrifugation and the supernatant was collected. Protein concentration in collected supernatant was measured (Microplate BCA Protein Assay Kit). Equal amounts of proteins from different treatments were incubated with […] of anti-Tat (Thermo Fisher, Cat. No. MA1-71509) or anti-BRD4 (Thermo Fisher, Cat. No. 730037) antibody or normal mouse IgG (Cell Signaling, Cat. No. 5415) for overnight at 4° C. The immune complexes were precipitated by 50 μl protein G-conjugated magnetic beads (Thermo Fisher, Cat. No. 10003D). Beads were washed 6 times using cold NP-40 cell lysis buffer and then subjected to SDS-PAGE electrophoresis. The membranes were immunoblotted with anti-CDK9 primary antibody, followed by incubation with HRP-conjugated secondary antibody.

[6] = system: non-specific cellular proteins; test: Binding to a broader panel of non-specific cellular proteins
BRD4 BD2 = BRD4 BD2 (Homo sapiens, UniProt O60885); test: TR-FRET binding assay, BRD4 BD2
CDK9 binding to BRD4 = CDK9 binding to BRD4 (Homo sapiens, UniProt O60885); test: BRD4 Co-IP, CDK9 binding, J-Lat cells; type: cell-based; settings: vs PMA alone, 24 hours
BRD4 at HIV 5'-LTR = test: CHIP-qPCR, BRD4 binding to HIV promoter; type: cell-based; settings: activated and resting J-Lat, vs no compound control
J-Lat cells = test: J-Lat cell viability (Aqua blue, flow cytometry)
[7] = system: HIV particles from RV21 PBMC; test: HIV particles in culture supernatants, reporter TZM-bl assay; type: cell-based; settings: vs no treatment control
Description: We next assessed assess the HIV-suppressive activity of ZL0580 ex vivo. RV21 is ART naïve, chronic HIV infection established by US MHRP and use of PBMC samples from this cohort in our group has been previously published (25). PBMC from RV21 subjects (n=8) were stimulated with PHA to induce HIV transcriptional activation in the absence (0 Mm) or presence of ZL0580 ([…]).

[8] = system: HIV LTR chromatin in J-Lat cells; test: High-resolution MNase nucleosomal mapping of HIV LTR; type: cell-based; settings: 10 μM 24 hours, then PMA 24 hours, vs NC
human PBMCs = type: cell-based
RNAPII = test: Western blot of phosphorylated RNAPII (Ser 2 CTD) in J-Lat cells; type: cell-based; settings: vs PMA alone
Protocol: (§1) Target protein expression in WT and BRD4-KO J-Lat cells (10.6 full length) were measured by western blotting. […] The cells were harvested, washed and then lysed in NP-40 cell lysis buffer (containing 20 mM Tris-HCl, […] of NaCl, 0.2 mM EDTA, 1% NP40, protease inhibitor cocktail, and 1 mM PMSF) by rotation at RT for 1 hour. Cell lysates were centrifuged at 4° C. and the supernatants were collected, followed by measurement of total protein concentration in the supernatants by using Microplate BCA Protein Assay Kit. 20 μg proteins were separated using SDS-PAGE gel and then transferred to Immuno-Blot PVDF Membrane. The membrane was blocked (5% skimmed milk powder in TBST) and then incubated with individual protein-specific antibodies (CDK9, Cyclin T1, Cyclin T2, ELL2, p-RNA Pol II-CTD (Ser2), BRD2, BRD4, NF-κB, or cellular GAPDH) for overnight at 4° C. After washing three times in TBST, the membrane was incubated with anti-rabbit or anti-mouse IgG-HRP, depending on the primary antibody used. The membrane was incubated in Super Signal West Pico Chemiluminescent Substrate. Molecular weights of target proteins were assessed by comparing with markers.

Tat at HIV 5'-LTR = test: CHIP-qPCR, Tat recruitment to HIV promoter; type: cell-based; settings: J-Lat, 10 μM, 24 hours
Protocol: ChIP assay was performed using a ChIP-IT Express Kit (Active Modify, USA) according to the manufacturer's instructions. […] Cells were harvested and washed. Cell pellets were re-suspended in 10 ml PBS buffer and fixed with 37% formaldehyde to cross-link DNA and proteins. The fixation reaction was stopped by adding 1.1 ml of 10× Glycine for 5 min at RT. Cells were centrifuged and the supernatants were removed, followed by re-suspension of cells in ice-cold Lysis Buffer on ice for 30 min. Cells were centrifuged at 5,000 rpm for 10 min to pellet the nuclei. Nuclei pellets were re-suspended in 700 μl shearing buffer plus 3.2 μl of PIC and 3.2 μl of PMSF, and were then sonicated using the determined conditions. Sheared chromatin samples were used to set up ChIP reactions by adding the magnetic beads and 5 μg of anti-Tat (1 mg/ml, Thermo Fisher, MA1-71509) or control mouse IgG (2.5 mg/ml, Cell Signaling, #5415) antibody (overnight rotation at 4° C.). After several times of washing by ChIP buffers 2, the chromatin was reverse cross-linked and treated with proteinase K. The eluted DNA were cleaned up with phenol-chloroform and used in real time-PCR. The results were analyzed by the fold enrichment method with the formula % enrichment=2−(CT IP−CT mock).

BRD4 BD1 domain = BRD4 BD1 domain (Homo sapiens, UniProt O60885); test: TR-FRET binding assay, BRD4 BD1
[9] = system: HIV (US-1 strain) in human CD4 T cells; type: cell-based; settings: for HIV infection in activated CD4 T cells (intracellular p24): 0-8 μM, three days after viral exposure
ELL2 = ELL2 protein (WB) and mRNA (Q-PCR) in J-Lat cells; type: cell-based; settings: vs PMA alone, WT J-Lat, 24 hours
Protocol: as §1

[10] = system: HIV in BRD4-KO J-Lat cells; type: cell-based
[11] = system: latent HIV in J-Lat cells (10.6); test: HIV-activation screening in J-Lat cells (GFP, flow cytometry); type: cell-based; settings: compound alone, 10 μM, 24 hours
[12] = system: BD1 and BD2 of BET proteins (BRD4, BRD2, BRD3, BRDT); test: TR-FRET binding to BD1 and BD2 of BET proteins
Description: Details are available in the Supplementary Methods.

O=C(Nc1ccc(C(F)(F)F)cc1)Nc1ccc(S(=O)(=O)N2CCCC2C(=O)Nc2ccccc2)cc1 (stereo in doubt) [ZL0580, (R)—N-Phenyl-1-((4-(3-(4-(trifluoromethyl)phenyl)ureido)phenyl)sulfonyl)pyrrolidine-2-carboxamide]
HIV in unactivated CD4 T cells (p24+%) [1]: dose-dependently suppresses HIV in unactivated CD4 T cells | HIV transcription (Gag RNA) in PBMCs (HIV in human PBMCs): reduced HIV transcription in PBMCs | cell-associated HIV DNA (HIV in human PBMCs): did not significantly alter HIV DNA levels | dose dependence of suppression of PMA-induced HIV activation ([2]; PMA + 0, 1, 10, 20 μM): suppresses PMA-induced HIV activation in dose-dependent manner | effect on PMA-induced HIV activation (GFP+%) [2]: suppresses PMA-induced HIV activation | HIV mRNAs (Gag and 3'-LTR RNA levels) [3]: reduces both Gag and 3′-LTR RNA levels | HIV reactivation by LRAs after pre-treatment ([3]; resting J-Lat, single dose 10 μM for 3 days, then SAHA or Prostratin): renders J-Lat cells more resistant to HIV reactivation by SAHA or Prostratin | kinetics of HIV transcription (3'-LTR RNA) ([3]; single treatment 10 μM, PMA-activated or resting, Day 2, 7, 14): suppresses both PMA-stimulated and basal HIV transcription through Day 14 after treatment | IC50 [4]: > 10000 nM | HIV Gag mRNA ex vivo ([5]; PHA-stimulated RV21 PBMC (n=8)): suppress HIV transcription ex vivo in all eight PBMC samples | reduction of RNA levels in some subjects ([5]; PHA-stimulated RV21 PBMC): greater than 10 fold | toxicity to RV254 PBMCs (RV254 PBMCs): did not cause significant toxicity to these cells | CDK9 binding to Tat (CDK9 binding to Tat): reduced CDK9 binding to Tat | binding activity to non-specific cellular proteins [6]: no or weak binding activity | IC50 (BRD4 BD2): 1070 nM | CDK9 binding to BRD4 (CDK9 binding to BRD4): enhanced CDK9 binding to BRD4 | BRD4 binding to HIV promoter (BRD4 at HIV 5'-LTR): promoted BRD4 binding to HIV promoter | concentrations without significant cell death (J-Lat cells; 0-80 μM, 1 & 3 days): below 40 μM | cell death vs NC (J-Lat cells; 10 μM, Day 2, 7 and 14, PMA-activated and un-stimulated): did not cause significant cell death | production of HIV particles in cell culture supernatants [7]: significantly reduced | nucleosomal DNA protection in HIV LTR [8]: enhanced nucleosomal DNA protection in the majority of amplicon regions (6-20) | concentrations without significant PBMC death (human PBMCs; 0-80 μM): below 40 μM | PBMC viability (human PBMCs; 8 μM vs NC, PHA-activated, 3 days): comparable between NC and ZL0580 treatment | RNAPII activation (phosphorylation of CTD Ser2) (RNAPII): reduced RNAII activation | recruitment of Tat to HIV promoter (Tat at HIV 5'-LTR): reduced Tat recruitment to HIV promoter | IC50 (BRD4 BD1 domain): 163 nM | HIV infection in activated CD4 T cells (intracellular p24) [9]: suppress HIV in activated human CD4 T cells in a dose-dependent manner | productive HIV infection in CD4 T cells ([9]; single treatment 8 μM): almost complete loss of productive HIV infection in CD4 T cells | ELL2 protein (ELL2): substantially reduced ELL2 protein | Gag and 3'-LTR RNA expression, vector control cells [10]: substantially inhibit Gag and 3′-LTR RNA expression | HIV suppression (GFP) in BRD4-KO cells [10]: failed to induce HIV suppression in BRD4-KO cells | HIV suppression in BRD4-KO cells with exogenous BRD4 expression [10]: restored to large extent the ability of ZL0580 to suppress HIV in these cells | inhibition of Gag and 3'-LTR RNA, BRD4-KO cells [10]: largely abrogated in the BRD4-KO cells

Cc1cc(N=Nc2ccc(S(=O)(=O)NC3CCCC3)cc2)c(N)cc1O [ZL0454]
effect on PMA-induced HIV activation (GFP+%) [2]: synergistically enhanced PMA-induced HIV activation | activation of latent HIV (GFP expression) [11]: modestly activate HIV | HIV infection in activated CD4 T cells (intracellular p24) [9]: did not suppress HIV in CD4 T cells

Cc1sc2c(c1C)C(c1ccc(Cl)cc1)=N[C@@H](CC(=O)OC(C)(C)C)c1nnc(C)n1-2 [JQ1, reference compound]
effect on PMA-induced HIV activation (GFP+%) [2]: synergistically enhances PMA-stimulated HIV activation | HIV mRNAs (Gag and 3'-LTR RNA levels) [3]: enhances their levels | CDK9 binding to Tat (CDK9 binding to Tat): enhanced CDK9 binding to Tat | BRD4 binding to HIV promoter (BRD4 at HIV 5'-LTR): reduced this binding | nucleosomal DNA protection in HIV LTR [8]: reduced nucleosomal DNA protection in several amplicon regions | activation of latent HIV (GFP expression) [11]: activates HIV | RNAPII activation (phosphorylation of CTD Ser2) (RNAPII): potentiated its activation | recruitment of Tat to HIV promoter (Tat at HIV 5'-LTR): enhanced binding of Tat to HIV promoter | ELL2 protein (ELL2): increased its level | binding to BD1 and BD2 of BET proteins [12]: non-selectively binds to both BD1 and BD2 all four BET proteins

COC(=O)[C@@H]1CCCN1S(=O)(=O)c1ccc(NC(=O)Nc2cccc(C(F)(F)F)c2)cc1 [ZL0506]
effect on PMA-induced HIV activation (GFP+%) [2]: modestly suppress HIV
